{
  "source": "patent US20140163082A1",
  "about": "“PYRAZOLYL COMPOUNDS FOR USE IN REVERSING REACTIVE GLIOSIS” (priority 2011, published 2014)",
  "key": {"[1]": {"tested_on": "hRMVECs cocultured with rMC-1 cells", "experiment": "Cell proliferation in a co-culture system model (MTT)", "assay_type": "cell-based, human", "conditions": "rMC-1 cells treated with YC-1 100 μM for 24 hours, normoxic and hypoxic conditions", "method": "To test the influence of Móller cells [rMC-1] on the hRMVECs proliferation, rMC-1 [2×10^5 cells cm—2] were plated in a transwell insert [Millipore, Billerica, Mass.] with […] pores and allowed to adhere overnight in 150 μL of CS—C complete medium [Cell Systems, Kirkland, Wash.], supplemented with 10% FBS and incubated at 37° C. under normoxic [5% CO2/95% air]. The rMC-1 cells were then incubated under normoxic [5% CO2/95% air], or hypoxic conditions. To establish hypoxic conditions, cells were placed in airtight chambers [BioSpherix, Redfield, N.Y.] that were flushed with a gas mixture of 5% CO2 and 95% N2. Oxygen concentrations within these chambers were maintained at 1.2% using Pro-Ox Model 110 O2 regulators. After treating the r-MC-1 cells with YC-1 [100 μM] for 24 hours, the insert was then placed into 24 well-plates, in which hRMVECs were plated at 5×10^3 cells cm^−2 and allowed to adhere overnight [FIG. 7B]. hRMVECs proliferation was evaluated using 3, […]-2,5-diphenyl tetrazolium bromide [MTT] colorimetric assay [Mosmann,1983], at 24, 48, 72, and 96 hours after coculture. During the last 4 hours of each day, […] of 5 mg/ml MTT [Millipore, Billerica, Mass.] was added in each well. Formed Formazan crystals were dissolved in […] DMSO and optical density was recorded at 492 nm. Experiments were performed on at least three independent occasions. […]"}, "rMC-1 cells": {"tested_on": "rMC-1 cells", "experiment": "GFAP immunofluorescence, rMC-1", "assay_type": "cell-based", "conditions": "for GFAP protein expression (immunofluorescence): vs hypoxic controls", "method": "Cells were placed in airtight chambers [BioSpherix, Redfield, N.Y.] and the O2 tension was maintained at 1.2% by using Pro-Ox Model 110 O2 regulator [BioSpherix, Redfield, N.Y.]. The chamber was purged with a gas mixture of 5.32% CO2, and 93.48% N2. […] Müller cells [rMC-1] and […] cells [2×10^4 cells per well] were grown on 8-well chamber slides and cultured in 300 μl of their growing media, which contained YC-1 [25-100 μM] or DMSO [0.2% v/v] and incubated under normoxia or hypoxia for 48 hours at 37° C. YC-1 or DMSO was added 5 minutes prior to the hypoxic incubation. The cells were fixed 48 hours later with 3.7% paraformaldehyde and permeabilized with 0.2% TritonTM X-100 in PBS. The cells were incubated for two hours with anti-GFAP antibody. Negative control experiments consisted of omission of the primary antibody. Cells were then incubated with HRP-conjugate working solution, followed by the addition of the […] solution [TSA Kit#2 and #4 for rMC-1 and […] staining, respectively] at 1:100 dilutions [Molecular Probes, Carlsbad, Calif.]. Digitized images were acquired utilizing AxioVision software [Zeiss Axiovert 135 and AxioCam]. Intensity values of immunofluorescence staining of GFAP in rMC-1 and […] cells was analyzed and quantified using MetamorphTM imaging analysis software version 6.0 [Universal Imaging, Sunnyvale, Calif.]. The staining intensity in our series ranged from a weak blush to moderate or strong. The amount of cells staining with the antibody was further categorized as focal [<10%], patchy [10%-50%], and diffuse [>50%]. For semiquantitative analysis, focal and/or weak staining was considered equivocal staining, and patchy or diffuse staining was subcategorized as either moderate or strong."}, "[2]": {"tested_on": "human retinal microvascular EC", "conditions": "refs [16, 17, 18]; cited from earlier work"}, "[3]": {"conditions": "rMC-1, 25 μM YC-1, hypoxia 48 hours"}},
  "data": [
    {"smiles": "OCc1ccc(-c2nn(Cc3ccccc3)c3ccccc23)o1", "note": "[YC-1, 3-(5′-hydroxymethyl-2′-furyl)-1-benzylindazole]", "values": [
      {"measurement": "proliferation of hRMVECs in coculture", "setting": "[1]", "result": "significantly suppressed"},
      {"measurement": "GFAP cytoplasmic staining pattern/intensity (immunofluorescence)", "setting": "rMC-1 cells; [3]", "result": "weaker equivocal staining intensity"},
      {"measurement": "GFAP staining vs DMSO-treated hypoxic controls (immunofluorescence)", "setting": "rMC-1 cells; [3]", "result": "remarkable inhibition"},
      {"measurement": "GFAP protein expression (immunofluorescence)", "setting": "rMC-1 cells; rMC-1, 50 μM YC-1, hypoxia", "result": "significant inhibitory effects"},
      {"measurement": "GFAP protein expression (immunofluorescence)", "setting": "rMC-1 cells; rMC-1, 75 μM YC-1, hypoxia", "result": "significant inhibitory effects"},
      {"measurement": "GFAP staining remaining in cytoplasm (immunofluorescence)", "setting": "rMC-1 cells; rMC-1, 100 μM YC-1, hypoxia", "result": "few stained regions"},
      {"measurement": "GFAP protein levels (quantified staining intensity, FIG. 11C)", "setting": "rMC-1 cells; rMC-1, hypoxia, dose-dependent fashion", "result": "significantly reduced"},
      {"measurement": "HIF-1α, HIF-2α, VEGF, EPO, ET-1, and MMP-9 protein levels", "setting": "[2]", "result": "down-regulates"}
    ]}
  ]
}
